Results taken from patent publication US20120100130A1, “Novel Receptor Hetero-Dimers/-Oligomers” (DIMERIX BIOSCIENCE PTY LTD., priority 2009, published 2012).

How the values were obtained:
[1] = tested on: AngII treated monocytes; conditions: cited from earlier work
[2] = tested on: leukocyte infiltration; conditions: intraperitoneal AngII administration; cited from earlier work
[3] = molecular target: T1, CCR2b (Rattus norvegicus, UniProt O55193); conditions: AngII and high salt diet, cited from earlier work
T1 construct: host or cells: whole animals (in vivo)
T1 sequence (O55193 1-373): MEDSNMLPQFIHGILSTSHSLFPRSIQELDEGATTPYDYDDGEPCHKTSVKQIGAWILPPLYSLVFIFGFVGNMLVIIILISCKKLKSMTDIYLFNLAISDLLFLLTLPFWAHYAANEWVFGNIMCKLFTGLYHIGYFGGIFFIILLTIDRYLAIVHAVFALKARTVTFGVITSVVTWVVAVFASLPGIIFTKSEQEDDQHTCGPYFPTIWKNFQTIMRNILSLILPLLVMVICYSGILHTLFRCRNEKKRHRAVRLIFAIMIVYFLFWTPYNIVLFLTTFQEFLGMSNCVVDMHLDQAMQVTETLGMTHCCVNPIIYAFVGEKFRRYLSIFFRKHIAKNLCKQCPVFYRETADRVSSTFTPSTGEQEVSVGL

[4] = tested on: AT1R; conditions: apolipoprotein E-deficient mice, cited from earlier work
[5] = tested on: renal tissue; conditions: rats, 3 days of AngII treatment; cited from earlier work
[6] = tested on: glomerular endothelial cells; conditions: AngII treatment, rat glomerular endothelial cells; cited from earlier work
[7] = tested on: renal cells and monocytes; conditions: cited from earlier work
[8] = molecular target: T2, AT1R (Homo sapiens, UniProt P30556); test: eBRET control, cells expressing AT1R/Rluc8 and barr2/Venus with pcDNA3; format: cell-based; conditions: 10^−7M MCP1; HEK293FT cells expressing AT1R/Rluc8 and barr2/Venus with pcDNA3
T2 construct: expressed in transfected cells; host or cells: HEK293FT
T2 sequence (P30556 1-359): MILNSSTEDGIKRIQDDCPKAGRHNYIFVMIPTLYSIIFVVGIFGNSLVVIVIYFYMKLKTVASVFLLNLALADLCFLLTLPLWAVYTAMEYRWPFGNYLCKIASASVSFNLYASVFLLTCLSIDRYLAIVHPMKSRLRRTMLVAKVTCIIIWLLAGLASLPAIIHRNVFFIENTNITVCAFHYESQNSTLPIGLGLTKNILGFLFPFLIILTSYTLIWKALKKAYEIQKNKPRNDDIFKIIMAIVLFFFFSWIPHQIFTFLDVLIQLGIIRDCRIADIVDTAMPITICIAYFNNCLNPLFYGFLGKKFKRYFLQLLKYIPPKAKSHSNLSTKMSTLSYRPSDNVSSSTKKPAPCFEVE
Procedure: (§1) HEK293FT cells were seeded in 6-well plates at a density of approximately 630,000 cells/well and maintained at 37° C., 5% CO2 in Complete Media (DMEM containing 0.3 mg/ml glutamine, 100 IU/ml penicillin and 100 μg/ml streptomycin (Gibco)) supplemented with 10% fetal calf serum (FCS; Gibco). Transient transfections were carried out 24 h after seeding using GeneJuice (Novagen) according to manufacturer instructions. 24 h post-transfection, cells were washed with PBS, detached using 0.05% trypsin/0.53 mM EDTA, resuspended in HEPES-buffered phenol red free Complete Media containing 5% FCS and added to a poly-L-lysine-coated white 96-well microplate (Nunc). 48 h post-transfection, eBRET assays were carried out following pre-incubation of cells with EnduRen™ (Promega) at a final concentration of 30 μM, at 37° C., 5% CO2 for 2 h. BRET measurements were taken at 37° C. using the Victor Light plate reader with Wallac 1420 software (Perkin-Elmer). Filtered light emissions were sequentially measured for 2 s in each of the ‘donor wavelength window’ (400-475 nm) and ‘acceptor wavelength window’ (520-540 nm).
The BRET signal observed between interacting proteins is normalized by subtracting the background BRET ratio. […]
In parallel, eBRET signals were measured from cells transiently expressing AT1R/Rluc8 and barr2/Venus with pcDNA3 following treatment with 10^−7M monocyte chemotactic protein-1 (MCP1).

[9] = molecular target: T3, AT2R (Homo sapiens, UniProt P50052); test: eBRET control, cells expressing AT2R/Rluc8 and barr2/Venus with pcDNA3; format: cell-based; conditions: 10^−7M MCP1; HEK293FT cells expressing AT2R/Rluc8 and barr2/Venus with pcDNA3
T3 construct: expressed in transfected cells; host or cells: HEK293FT
T3 sequence (P50052 1-363): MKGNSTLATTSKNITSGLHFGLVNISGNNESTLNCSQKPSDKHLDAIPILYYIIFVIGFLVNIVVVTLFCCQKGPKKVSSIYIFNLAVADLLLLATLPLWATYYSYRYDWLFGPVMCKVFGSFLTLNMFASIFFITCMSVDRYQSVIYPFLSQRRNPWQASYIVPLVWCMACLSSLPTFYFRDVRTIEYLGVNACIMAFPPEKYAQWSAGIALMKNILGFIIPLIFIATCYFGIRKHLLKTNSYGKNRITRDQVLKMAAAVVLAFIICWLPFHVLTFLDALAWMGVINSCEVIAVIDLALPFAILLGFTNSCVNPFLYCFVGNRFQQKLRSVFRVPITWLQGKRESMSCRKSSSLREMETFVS
Procedure: as §1
The BRET signal observed between interacting proteins is normalized by subtracting the background BRET ratio. […] In the following examples, the second calculation will be used and the signal is described as the ‘ligand-induced BRET ratio’.

CCCCc1nc(Cl)c(CO)n1Cc1ccc(-c2ccccc2-c2nn[nH]n2)cc1 [Losartan]
AngII-mediated upregulation of MIP-1 and interleukin-8 chemokines [1]: inhibited
Leukocyte infiltration [2]: inhibited

O=C1Nc2ccccc2C2(CCN(CCc3ccc(C(F)(F)F)cc3)CC2)O1 [RS102895]
BP ([3]; with versus without CCR2b antagonist): comparable
renal protection in hypertension [3]: protects the kidney in hypertension by reducing the inflammatory response

C[C@H](N[C@@H](CCc1ccccc1)C(=O)O)C(=O)N1[C@H](C(=O)O)C[C@@H]2CCC[C@@H]21 [Ramiprilat]
AngII-induced upregulation of MIP-1 [1]: suppressed

CCCCC1=NC2(CCCC2)C(=O)N1Cc1ccc(-c2ccccc2-c2nnn[nH]2)cc1 [irbesartan]
lesion size ([4]; after 12 weeks): reduced
levels of MCP-1 and MIP-1α mRNA expression [4]: significantly lower

angiotensin II (DRVYIHPF; Angiotensin-2; UniProt P01019 25-32, looked up) [AngII]
renal expression of TNFα and MCP-1 [5]: increased
CC and CXC chemokine levels [2]: increase
mRNA and protein expression of the chemokine RANTES [6]: increase

angiotensin III (RVYIHPF; Angiotensin-3; UniProt P01019 26-32, looked up) [AngIII]
MCP-1 mRNA and protein expression ([7]; AngIII treatment of renal cells and monocytes): increase
transcription factor NF-κB ([7]; AngIII treatment): activated

monocyte chemotactic protein-1 [MCP1]
ligand-induced BRET ratio [8]: did not result in an increase in ligand-induced BRET ratio
ligand-induced BRET ratio [9]: did not result in an increase in ligand-induced BRET ratio
